Laboratory results reported in paper PMC11279551, “Pharmacokinetics and Enterohepatic Circulation of 2-(Quinoline-8-carboxamido)benzoic Acid (2-QBA) in Mice” (Pharmaceutics, 2024).

What was measured:
[1] = PO 6.25~50 mg/kg; cited from earlier work
[2] = Intestinal permeability in Ussing chamber; assay type: in vitro ADME, mice; conditions: mouse, pH 7.4; range over intestinal segments, n = 3; read-out: permeability of marker compounds
Protocol: The small intestines were isolated from fasted mice under isoflurane anesthesia (1–3% with oxygen gas flow) and dissected into three parts, the jejunum, upper ileum, and lower ileum. […] The intestinal permeability of 2-QBA was assessed by adding 0.5 mL of HBSS containing 20 μM of 2-QBA on the donor side and 0.5 mL of fresh HBSS on the receiver side. Then, a 100 μL aliquot was withdrawn from the receiver side every 30 min for 2 h and an equal volume of pre-warmed fresh HBSS was added to replenish the lost volume. To analyze the 2-QBA, 100 μL aliquots were mixed with 4 volumes of IS solution (1 ng/mL berberine in acetonitrile). The mixture was vigorously vortexed for 5 min and then centrifuged at 13,000× g for 5 min. The supernatant was transferred to autosampler vials. Subsequently, a 3 μL aliquot was injected into the LC-MS/MS system.

SMILES | time within which multiple peaks appeared [1] | Papp [2]
O=c1c(-c2ccc(O)cc2)coc2cc(O)cc(O)c12 [genistein] | ≤ 6 h | –
CC(C)NCC(O)COc1cccc2ccccc12 (centres unmarked) [propranolol, reference compound] | – | 100 to 225 nm/s
